Test results taken from patent publication US8338151B2, “Method for creating intracellular artificial nanostructures in situ” (The Hong Kong University of Science and Technology, priority 2005, dated 2012).

Assay: Minimum gelation concentration / hydrogelation ability
Assay type: physicochemical
Excerpt: In this embodiment, precursors bearing the general formula C10H7CH2C(O)—ZZ (where Z is the residue of an amino acid) was used.
For this precursor, it is possible to use the enzyme kinase/phosphatase pair as an enzyme switch because (i) FF is prone to self-assembly (ii) Nap-FF gels water effectively (at 0.8 wt %), and (iii) the residue of Glu-Tyr (EY) accepts phosphorylation in the presence of a tyrosine kinase and the phosphorylation process can be reversed by phosphatase.
One of the motivations to use naphthalene (Nap) rather than N-(fluorenyl-methoxycarbonyl) (FMOC) is that Nap should be more biocompatible, as evidenced by several clinical drugs consisting of a Nap motif (i. e., propranolol, naphazoline, nafronyl). The glycine (G) was used to connect Nap-FF with EY because glycine is the simplest amino acid. Unlike other pentapeptides, FFGEY is not a known epitope of any protein, but it carries the basic structural requirement to serve as the substrate of the tyrosine kinase. After obtaining precursor IIIa through solid-phase synthesis, the hydrogelation ability of IIIa was tested. Via a slight adjustment of pH (from 7.8 to 7.5), IIIa forms a transparent hydrogel in water at 0.6 wt %). The successful hydrogelation of IIIa implies that Nap-FF also may act as a useful motif to conjugate with other amino acid residues to construct hydrogelators. […]

O=C(Cc1ccc2ccccc2c1)N[C@@H](Cc1ccccc1)C(=O)N[C@@H](Cc1ccccc1)C(=O)O [C10H7CH2C(O)-L-Phe-L-Phe]
minimum gelation concentration (mgc): ca. 0.4% | concentration at which a hydrogel forms in water (water): 0.8 wt %
